Each block holds one compound with its values, some of them ahead of it. Activity calls are given as the source filed them.
Key:
[1] = target: Ras and Rab interactor 1/Tyrosine-protein kinase ABL1 (Homo sapiens, UniProt P00519+Q13671); format: functional;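 further: biochemical TR-FRET dose-response test measuring inhibition of binding between Rin1 and Abl proteins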
[2] = LGR2 antagonists, dose response, cell-based, HEK293, CRE-luciferase reporter, cherry pick, set 2 (AID 743343); format: functional;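 further: transfected cells were stimulated with diluted bursicon conditioned medium after compound addition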
[3] = target: T1, Fatty acid synthase (Homo sapiens, UniProt P49327); assay: FAS thioesterase domain inhibitors, dose response, biochemical, endpoint fluorescence intensity, uHTS hits (AID 624327); format: functional;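 further: fluorescence from hydrolysis of an O-methyl fluorescein acyl ester substrate by the enzyme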
T1 sequence (P49327 whole entry, the tested form may be a part): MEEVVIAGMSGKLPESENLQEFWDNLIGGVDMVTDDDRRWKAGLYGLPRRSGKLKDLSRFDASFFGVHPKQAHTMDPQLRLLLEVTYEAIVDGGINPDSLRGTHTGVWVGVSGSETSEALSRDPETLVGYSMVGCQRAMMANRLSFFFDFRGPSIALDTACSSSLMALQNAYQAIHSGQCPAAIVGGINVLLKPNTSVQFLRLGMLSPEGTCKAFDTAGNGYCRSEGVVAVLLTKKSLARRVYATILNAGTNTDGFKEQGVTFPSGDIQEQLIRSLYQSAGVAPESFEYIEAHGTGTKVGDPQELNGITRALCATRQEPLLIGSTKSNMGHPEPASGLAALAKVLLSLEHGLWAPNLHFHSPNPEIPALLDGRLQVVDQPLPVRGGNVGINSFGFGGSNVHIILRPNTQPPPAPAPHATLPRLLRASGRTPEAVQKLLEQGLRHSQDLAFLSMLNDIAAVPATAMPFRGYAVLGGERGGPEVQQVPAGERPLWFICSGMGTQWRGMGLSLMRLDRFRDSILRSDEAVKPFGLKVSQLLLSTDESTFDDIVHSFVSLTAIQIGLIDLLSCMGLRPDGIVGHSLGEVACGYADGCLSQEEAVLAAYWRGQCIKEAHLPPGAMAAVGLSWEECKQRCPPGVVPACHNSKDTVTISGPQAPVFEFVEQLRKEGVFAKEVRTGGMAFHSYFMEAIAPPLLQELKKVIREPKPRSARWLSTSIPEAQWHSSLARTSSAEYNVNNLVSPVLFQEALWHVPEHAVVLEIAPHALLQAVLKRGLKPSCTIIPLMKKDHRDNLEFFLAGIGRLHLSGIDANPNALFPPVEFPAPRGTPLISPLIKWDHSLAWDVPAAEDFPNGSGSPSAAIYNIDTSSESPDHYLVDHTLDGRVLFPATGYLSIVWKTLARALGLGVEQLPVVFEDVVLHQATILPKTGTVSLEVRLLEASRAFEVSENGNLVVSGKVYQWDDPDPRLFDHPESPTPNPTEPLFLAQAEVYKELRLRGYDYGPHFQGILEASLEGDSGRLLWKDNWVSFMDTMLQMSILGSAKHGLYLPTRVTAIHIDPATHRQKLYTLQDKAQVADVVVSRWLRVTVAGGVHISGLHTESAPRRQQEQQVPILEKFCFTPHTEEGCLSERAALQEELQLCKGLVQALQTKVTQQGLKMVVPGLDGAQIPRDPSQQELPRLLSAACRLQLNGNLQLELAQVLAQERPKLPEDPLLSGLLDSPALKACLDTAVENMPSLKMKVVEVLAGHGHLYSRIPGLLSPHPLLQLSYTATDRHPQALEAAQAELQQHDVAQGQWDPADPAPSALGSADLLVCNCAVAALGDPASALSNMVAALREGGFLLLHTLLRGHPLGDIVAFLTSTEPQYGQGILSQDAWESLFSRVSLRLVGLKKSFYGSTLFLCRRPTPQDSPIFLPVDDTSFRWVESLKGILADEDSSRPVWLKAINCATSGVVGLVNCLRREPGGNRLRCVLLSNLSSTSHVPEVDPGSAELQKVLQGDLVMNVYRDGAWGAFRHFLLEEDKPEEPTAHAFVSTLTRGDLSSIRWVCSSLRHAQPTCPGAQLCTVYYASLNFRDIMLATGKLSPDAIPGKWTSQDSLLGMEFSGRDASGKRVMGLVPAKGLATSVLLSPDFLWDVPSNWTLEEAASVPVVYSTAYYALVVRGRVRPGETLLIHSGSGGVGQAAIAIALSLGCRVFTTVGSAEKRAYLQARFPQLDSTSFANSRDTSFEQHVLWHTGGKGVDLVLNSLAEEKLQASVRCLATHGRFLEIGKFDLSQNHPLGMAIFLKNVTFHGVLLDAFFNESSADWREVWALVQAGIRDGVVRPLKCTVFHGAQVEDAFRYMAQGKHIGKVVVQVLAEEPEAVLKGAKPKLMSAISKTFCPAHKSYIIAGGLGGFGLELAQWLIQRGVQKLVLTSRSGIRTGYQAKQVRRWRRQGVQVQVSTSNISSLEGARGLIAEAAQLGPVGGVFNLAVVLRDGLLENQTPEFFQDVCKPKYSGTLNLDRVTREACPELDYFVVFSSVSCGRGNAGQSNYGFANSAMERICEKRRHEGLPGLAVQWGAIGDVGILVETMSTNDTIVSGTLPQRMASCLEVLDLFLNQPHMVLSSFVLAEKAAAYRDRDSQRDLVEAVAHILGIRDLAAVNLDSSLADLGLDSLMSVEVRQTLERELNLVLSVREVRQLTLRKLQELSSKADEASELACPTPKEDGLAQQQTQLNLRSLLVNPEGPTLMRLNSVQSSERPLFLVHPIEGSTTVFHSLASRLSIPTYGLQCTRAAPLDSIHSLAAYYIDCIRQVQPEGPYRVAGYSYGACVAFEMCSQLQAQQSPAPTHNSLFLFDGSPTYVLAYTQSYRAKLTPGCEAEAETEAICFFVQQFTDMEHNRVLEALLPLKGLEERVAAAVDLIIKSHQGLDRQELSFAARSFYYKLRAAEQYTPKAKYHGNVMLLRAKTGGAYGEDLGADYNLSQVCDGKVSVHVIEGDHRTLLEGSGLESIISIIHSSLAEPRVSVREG

[4] = MC4R antagonists, dose response, counter-screen for LGR2 antagonist project, cell-based, plate reader, cherry pick (AID 743444); format: functional;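 further: transfected HEK 293 cells stimulated with alpha-MSH peptide; potency of inhibitors of the alpha-MSH evoked signal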
[5] = HepG2 cell cytotoxicity, dose response, cytotoxicity control, plate reader, cherry-pick, antagonist series (AID 743416); format: functional, cell-based
[6] = target: T1, Fatty acid synthase; assay: FAS thioesterase domain inhibitors, dose response, biochemical, kinetic fluorescence intensity (AID 624326); format: functional;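 further: rate of fluorescence rise from hydrolysis of a fluorogenic O-methyl fluorescein ester substrate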
[7] = target: Kallikrein-7 (Homo sapiens, UniProt P49862); assay: Fluorescence Intensity-based biochemical primary high throughput dose response assay to identify activators of kallikrein-7 (K7) zymogen.
Chain of Kallikrein-7 (P49862 whole entry): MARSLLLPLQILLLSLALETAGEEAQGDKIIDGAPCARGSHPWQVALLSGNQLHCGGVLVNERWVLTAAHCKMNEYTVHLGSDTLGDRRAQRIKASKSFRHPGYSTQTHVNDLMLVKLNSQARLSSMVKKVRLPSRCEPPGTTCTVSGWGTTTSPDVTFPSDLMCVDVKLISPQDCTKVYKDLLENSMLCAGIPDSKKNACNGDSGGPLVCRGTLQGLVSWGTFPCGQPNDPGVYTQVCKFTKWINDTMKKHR

[8] = target: T2, Low molecular weight phosphotyrosine protein phosphatase (Homo sapiens, UniProt P24666); format: functional; settings: read-out: IC50_Mean;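 further: Dose-response confirmation assay measuring inhibition of LMPTP enzyme activity by fluorescence intensity read-out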
T2 sequence (P24666 whole entry): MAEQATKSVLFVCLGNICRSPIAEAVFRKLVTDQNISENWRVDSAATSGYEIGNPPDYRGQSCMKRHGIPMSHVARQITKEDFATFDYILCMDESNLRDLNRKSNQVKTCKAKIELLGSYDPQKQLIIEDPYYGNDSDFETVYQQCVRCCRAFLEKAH

[9] = off-target signal loss in HeLa-CEM21 co-culture – HeLa F-luc CTL cells, cherry-picked, counter-screen for HIV-1 Env fusion inhibitor project, dose response (AID 652040); format: functional, cell-based;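 further: potency for signal decrease marking cytotoxic or nonspecific inhibition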
[10] = inhibitors of clade B AD8 Env fusion, dose response, cell-based, cherry-pick (AID 652062); format: functional;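 further: luciferase signal from cell-cell fusion driven by HIV-1 clade B AD8 Env; potency is for inhibitors of fusion seen as a drop in luminescence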
[11] = ZM109 Env clade C HIV-1 fusion inhibitors, dose response, HeLa effector, CEM target cells, luciferase, cherry-pick (AID 652058); format: functional, cell-based
[12] = inhibitors of HIV Env-driven cell fusion, dose response, cherry-pick (AID 652057); format: functional, cell-based
[13] = cells; format: functional, cell-based
[14] = target: T3, Trace amine-associated receptor 1 (Homo sapiens, UniProt Q96RJ0); assay: Counterscreen for agonists of the human trace amine associated receptor 1 (hTAAR1): Fluorescence-based cell-based high throughput dose response assay to identify hTAAR1 agonist that also desensitize TAAR1 receptor response.; format: functional
T3 sequence (Q96RJ0 whole entry): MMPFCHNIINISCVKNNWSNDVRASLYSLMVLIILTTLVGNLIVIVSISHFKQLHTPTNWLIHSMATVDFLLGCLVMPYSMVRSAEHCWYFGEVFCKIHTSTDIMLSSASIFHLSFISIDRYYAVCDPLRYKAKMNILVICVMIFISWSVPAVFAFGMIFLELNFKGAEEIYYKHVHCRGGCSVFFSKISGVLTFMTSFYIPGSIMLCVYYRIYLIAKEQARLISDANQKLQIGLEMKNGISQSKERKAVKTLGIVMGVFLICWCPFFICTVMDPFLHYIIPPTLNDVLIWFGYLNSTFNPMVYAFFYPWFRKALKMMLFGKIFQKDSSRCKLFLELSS

[15] = cells; format: functional, cell-based; remark: listed apart in the source
[16] = target: T3, Trace amine-associated receptor 1; assay: Fluorescence-based cell-based high throughput dose response assay to identify agonists of the human trace amine associated receptor 1 (TAAR1).; format: functional
[17] = target: Mu-type opioid receptor (Homo sapiens, UniProt P35372); format: functional, cell-based;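 further: U2OS cells with beta-arrestin recruitment to OPRM1 by beta-gal complementation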
Chain of Mu-type opioid receptor (P35372 whole entry): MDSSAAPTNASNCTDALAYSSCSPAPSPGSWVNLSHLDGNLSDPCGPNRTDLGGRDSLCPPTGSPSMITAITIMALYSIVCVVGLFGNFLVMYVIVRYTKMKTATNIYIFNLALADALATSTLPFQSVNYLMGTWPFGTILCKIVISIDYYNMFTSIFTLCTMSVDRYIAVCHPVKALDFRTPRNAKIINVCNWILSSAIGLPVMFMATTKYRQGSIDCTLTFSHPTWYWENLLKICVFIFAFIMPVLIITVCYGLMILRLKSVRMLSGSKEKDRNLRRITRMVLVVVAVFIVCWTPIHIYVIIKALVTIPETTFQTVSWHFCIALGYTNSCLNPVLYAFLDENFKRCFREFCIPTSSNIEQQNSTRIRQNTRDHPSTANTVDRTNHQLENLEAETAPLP

[18] = target: 5-hydroxytryptamine receptor 2A (Mus musculus, UniProt P35363); format: functional, cell-based;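 further: CHO-K1 cells with tagged receptor and beta-arrestin; agonist potency measured as compound-induced activation of the receptor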
Chain of 5-hydroxytryptamine receptor 2A (P35363 whole entry): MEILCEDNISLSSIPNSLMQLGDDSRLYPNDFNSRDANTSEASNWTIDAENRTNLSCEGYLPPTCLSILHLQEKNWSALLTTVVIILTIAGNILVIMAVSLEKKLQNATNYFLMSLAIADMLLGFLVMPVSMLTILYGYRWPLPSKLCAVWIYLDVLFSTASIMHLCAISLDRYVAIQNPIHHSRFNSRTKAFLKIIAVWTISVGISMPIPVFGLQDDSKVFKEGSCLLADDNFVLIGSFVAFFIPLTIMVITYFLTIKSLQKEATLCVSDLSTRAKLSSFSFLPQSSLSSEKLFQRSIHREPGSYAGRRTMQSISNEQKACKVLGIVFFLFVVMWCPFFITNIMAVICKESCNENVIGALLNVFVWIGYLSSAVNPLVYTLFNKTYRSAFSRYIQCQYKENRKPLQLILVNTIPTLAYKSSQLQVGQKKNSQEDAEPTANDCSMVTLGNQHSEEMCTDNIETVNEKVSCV

[19] = target: T4, Protein Tat (Human immunodeficiency virus type 1 group M subtype B (isolate HXB2)(HIV-1), UniProt P04608); format: functional;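 further: tat binding to TAR RNA read out by fluorescence polarization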
T4 sequence (P04608 whole entry): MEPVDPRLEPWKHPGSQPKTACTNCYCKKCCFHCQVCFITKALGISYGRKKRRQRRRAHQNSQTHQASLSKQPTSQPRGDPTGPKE

[20] = THP-1 cell cytotoxicity, dose response, cytotoxicity control for Vif-APOBEC3G degradation inhibitor project, THP-1 cells (AID 1117359); format: functional; settings: Human immunodeficiency virus 1, THP-1
[21] = P. falciparum Dd2 growth inhibitors, dose response, SYBR Green, dry powder samples, set 9 (AID 1159568); format: functional, cell-based
[22] = cells
[23] = NIH-3T3 fibroblast cytotoxicity, dose response, cytotoxicity control, cell-based, fluorescence, Alamar Blue, secondary assay (AID 2327); format: functional;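 further: NIH-3T3 mouse fibroblasts cultured with fluconazole at 8 µg/mL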
[24] = inhibitors of intracellular T. cruzi replication, confirmation, NIH3T3 host cells, beta-gal luminescence (AID 2044); format: functional, cell-based;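 further: intracellular parasites grown in NIH/3T3 mouse fibroblasts as host cells; luminescent beta-galactosidase reporter signal from transgenic T. cruzi replicating inside host cells; inhibitors lower the luminescence signal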
[25] = target: T5, Microphthalmia-associated transcription factor (Homo sapiens, UniProt O75030); assay: TRPM1 promoter luciferase signal decrease, dose response, MITF inhibitor project, cell-based, SK-MEL-5, cherry-picked, set 3 (AID 493073); format: functional
T5 sequence (O75030 whole entry): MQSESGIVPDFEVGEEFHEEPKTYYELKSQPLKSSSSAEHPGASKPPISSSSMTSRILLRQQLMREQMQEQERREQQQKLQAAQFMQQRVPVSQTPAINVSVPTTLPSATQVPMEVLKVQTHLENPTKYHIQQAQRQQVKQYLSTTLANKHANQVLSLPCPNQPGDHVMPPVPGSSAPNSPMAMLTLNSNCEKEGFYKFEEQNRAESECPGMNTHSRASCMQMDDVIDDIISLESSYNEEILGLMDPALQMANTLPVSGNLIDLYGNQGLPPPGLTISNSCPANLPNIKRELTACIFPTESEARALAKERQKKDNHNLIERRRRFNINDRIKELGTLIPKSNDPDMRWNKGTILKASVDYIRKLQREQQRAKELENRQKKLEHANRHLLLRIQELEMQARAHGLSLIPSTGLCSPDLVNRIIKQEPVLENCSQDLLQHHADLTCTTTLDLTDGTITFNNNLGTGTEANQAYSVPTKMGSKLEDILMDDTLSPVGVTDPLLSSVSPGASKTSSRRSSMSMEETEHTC

[26] = C. albicans growth with fluconazole, confirmation, fluorescence, retest (AID 2467); format: functional, cell-based
[27] = cytotoxicity toward NIH3T3 fibroblasts, dose response, counter-screen, cell-based, ATP luminescence, mouse fibroblasts (AID 2010); format: functional;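 further: cells exposed to compound for about 90 hours before reading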
[28] = target: Protein Wnt-3a (Mus musculus, UniProt P27467); assay: Wnt3a-driven reporter signaling inhibition, dose response, selectivity assay for Gli-SUFU antagonist project, Wnt-LIGHT cells, luminescence (AID 651570); format: functional; settings: read-out: IC50_Mean;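 further: Wnt-LIGHT reporter cells stimulated with conditioned medium from Wnt3a-producing cells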
Chain of Protein Wnt-3a (P27467 whole entry): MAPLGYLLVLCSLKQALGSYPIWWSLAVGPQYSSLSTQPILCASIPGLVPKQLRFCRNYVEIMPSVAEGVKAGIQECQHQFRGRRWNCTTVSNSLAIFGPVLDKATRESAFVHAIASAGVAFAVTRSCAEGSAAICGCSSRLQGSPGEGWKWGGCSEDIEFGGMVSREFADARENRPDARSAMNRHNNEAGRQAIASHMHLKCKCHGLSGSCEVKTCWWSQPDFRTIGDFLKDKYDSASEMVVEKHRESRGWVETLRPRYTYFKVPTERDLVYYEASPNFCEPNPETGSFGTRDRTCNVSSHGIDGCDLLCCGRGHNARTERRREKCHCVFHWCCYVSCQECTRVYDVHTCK

[29] = target: T6, High affinity choline transporter 1 (Homo sapiens, UniProt Q9GZV3); assay: CHT inhibitors, dose response, cell-based, 5-point CRC, membrane potential dye (AID 504840); format: functional
T6 sequence (Q9GZV3 whole entry): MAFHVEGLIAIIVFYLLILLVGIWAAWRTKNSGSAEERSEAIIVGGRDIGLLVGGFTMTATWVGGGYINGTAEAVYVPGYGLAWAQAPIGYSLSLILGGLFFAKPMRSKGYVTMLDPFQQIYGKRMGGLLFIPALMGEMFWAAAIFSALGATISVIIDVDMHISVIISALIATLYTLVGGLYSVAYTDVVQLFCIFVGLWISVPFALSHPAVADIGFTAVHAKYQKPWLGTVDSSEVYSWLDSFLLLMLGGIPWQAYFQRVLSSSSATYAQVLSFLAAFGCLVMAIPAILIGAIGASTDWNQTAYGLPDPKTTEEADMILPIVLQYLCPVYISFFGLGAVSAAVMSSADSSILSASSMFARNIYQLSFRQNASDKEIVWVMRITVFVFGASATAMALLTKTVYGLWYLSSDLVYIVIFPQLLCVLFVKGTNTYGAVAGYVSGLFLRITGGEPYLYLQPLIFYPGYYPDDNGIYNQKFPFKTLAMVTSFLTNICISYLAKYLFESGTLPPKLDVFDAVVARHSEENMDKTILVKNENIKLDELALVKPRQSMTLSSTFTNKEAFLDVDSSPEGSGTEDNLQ

[30] = test system: INS1; assay: beta cell apoptosis inhibitors, cytokine rescue, dose response, luminescence, retest (AID 449756); format: functional, cell-based; settings: Rattus norvegicus;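 further: cell death triggered by IL-1 beta plus TNF-alpha plus IFN-gamma mixture; protective hits raise ATP signal compared with cytokine alone wells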
[31] = non-specific cell cytotoxicity, dose response, cytotoxicity control for PAX8 inhibitor project, plate reader, dry powder samples (AID 743021); format: functional, cell-based
[32] = test system: BJ; assay: cells; format: functional, cell-based; settings: Homo sapiens
[33] = test system: BJ; assay: cytotoxicity toward Ras-transformed BJeLR fibroblasts, dose response, cell-based, alamar blue fluorescence, cherrypicked samples (AID 2631); format: functional; settings: Homo sapiens;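 further: confirmatory dose-response assay in RAS-dependent BJ fibroblasts engineered with TERT, LT and ST, with cytotoxicity read by fluorescence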
[34] = test system: BJ; assay: cytotoxicity toward BJ-TERT-LT-ST fibroblasts, dose response, cell-based, RAS-independent, luminescence (AID 1935); format: functional; settings: Homo sapiens;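 further: BJ fibroblasts immortalized with TERT plus LT and ST oncogenes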
[35] = cytotoxicity toward DRD oncogenic fibroblasts, dose response, cell-based, non-viral oncogenic, luminescence (AID 1934); format: functional; settings: Homo sapiens
[36] = target: Paired box protein Pax-8 (Homo sapiens, UniProt Q06710); assay: inhibitors of PAX8-driven TPO luciferase reporter, dose response, RMG-I cells, cherry-pick (AID 687027); format: functional, cell-based;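 further: luciferase reporter driven by Pax8 target thyroperoxidase promoter measured by SteadyGlo luminescence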
Chain of Paired box protein Pax-8 (Q06710 whole entry): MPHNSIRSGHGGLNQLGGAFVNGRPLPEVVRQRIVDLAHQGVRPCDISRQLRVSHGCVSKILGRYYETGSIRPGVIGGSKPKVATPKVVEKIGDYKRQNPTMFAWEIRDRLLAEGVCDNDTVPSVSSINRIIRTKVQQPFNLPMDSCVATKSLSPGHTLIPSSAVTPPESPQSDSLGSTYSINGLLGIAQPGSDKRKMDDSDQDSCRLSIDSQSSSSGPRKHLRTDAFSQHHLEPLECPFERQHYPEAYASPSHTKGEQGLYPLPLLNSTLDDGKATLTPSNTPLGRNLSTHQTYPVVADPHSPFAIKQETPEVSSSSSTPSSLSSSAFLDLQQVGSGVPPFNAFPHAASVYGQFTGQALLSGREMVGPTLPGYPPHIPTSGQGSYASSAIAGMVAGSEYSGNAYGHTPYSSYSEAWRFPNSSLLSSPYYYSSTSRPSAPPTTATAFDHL

[37] = test system: BJ; assay: cytotoxicity toward BJ-TERT fibroblasts, dose response, cell-based, RAS-independent, luminescence (AID 1933); format: functional; settings: Homo sapiens

IC50 [1]: 6.04 µM (active)
SMILES: CN(Cc1c(F)cccc1Cl)C(=O)CNC(=O)c1ccc2c(c1)OCO2

SMILES: O=Cc1cn(Cc2cccc([N+](=O)[O-])c2)c2ccccc12
AC50 [2]: 1.28 µM (active)
IC50 [3]: 12 µM (active)
AC50 [4]: 0.801 µM (active)
AC50 [5]: 0.625 µM (active)
IC50 [6]: 10.9 µM (active)

EC50 [7]: 7.44 µM (active)
SMILES: C[C@H](O)[C@@H]1C(=O)N2CCc3c([nH]c4ccccc34)[C@@H]2C[C@@H]1N(C)S(=O)(=O)c1ccccc1

IC50 [8]: 9.12 µM (active)
SMILES: CCCCn1nnnc1C(c1cc2ccccc2o1)N1CCN(c2cc(C)nc3ccccc23)CC1 (stereo not drawn)

SMILES: CCOc1ccc(N(CC(=O)NCCSCc2ccc(Cl)cc2)S(C)(=O)=O)cc1
AC50 [9]: 9.39 µM (active)
AC50 [10]: 5.88 µM (active)
AC50 [11]: 9.3 µM (active)
AC50 [12]: 5.62 µM (active)

SMILES: O=C(NC1CCCCC1)C(=S)NCCc1ccccc1
IC50 [13]: > 29.9 µM (inactive)
IC50 [14]: 5.49 µM (active)
EC50 [15]: > 29.9 µM (inactive)
EC50 [16]: 2.41 µM (active)

EC50 [17]: 92.5 µM (inactive)
EC50 [18]: 0.0593 µM (active)
SMILES: Cc1ccc(CN2CCN(c3ccccn3)CC2)s1

EC50 [17]: 92.4 µM (inactive)
EC50 [18]: 0.865 µM (active)
SMILES: CC(=O)c1ccc(OCC(O)CN2CCN(c3ccccn3)CC2)cc1 (stereo not drawn)

IC50 [19]: 18.3 µM (inconclusive)
SMILES: CCC(/C=C(\O)c1ccncc1)=N\c1ccc(O)cc1
CC50 [20]: > 40 µM (active)

SMILES: Cc1ccn2c(=O)c(C(=O)NCCC3=CCCCC3)c(O)nc2c1
IC50 [13]: > 29.9 µM (inactive)
IC50 [14]: > 29.9 µM (inactive)
EC50 [15]: > 29.9 µM (inactive)
EC50 [16]: 3.44 µM (active)

SMILES: CC1(C(=O)NCc2cccc3ccccc23)CCN1Cc1ccc(-c2ccccc2)o1 (stereo not drawn)
AC50 [9]: 4.07 µM (active)
AC50 [10]: 2.57 µM (active)
AC50 [11]: 4.71 µM (active)
AC50 [12]: 2.31 µM (active)

SMILES: COc1ccccc1C#Cc1ccc([C@@H]2[C@@H](CO)N3CCCCN(C(=O)C4CCC4)C[C@H]23)cc1
AC50 [21]: 8.41 µM (active)

SMILES: CCOc1ccc(-c2cc(C)[n+](CCO)c(-c3ccc(OCC)cc3)c2)cc1.[O-][Cl+3]([O-])([O-])[O-]
EC50 [22]: 0.079 µM (active)
EC50 [23]: > 160 µM (inactive)
EC50 [24]: < 0.1 µM (active)
AC50 [25]: 11.1 µM (active)
EC50 [26]: > 38 µM (not active)
EC50 [27]: > 60 µM (inconclusive)
IC50 [28]: 50 µM (inactive)

EC50 [17]: 92.5 µM (inactive)
EC50 [18]: 0.637 µM (active)
SMILES: OC(COCc1cccs1)CN1CCN(c2ccccn2)CC1 (stereo not drawn)

EC50 [7]: > 69.5 µM (inactive)
SMILES: Cc1ccc(/C=N/c2ccccc2C(N)=O)cc1

IC50 [1]: 0.695 µM (active)
SMILES: CCOC(=O)CCCCC(=O)c1[nH]c(=O)[nH]c1CSCCO

SMILES: CCCOc1ccc(Br)cc1CSC(=N)N
IC50 [29]: 15.9 µM (active)
IC50 [28]: 9.88 µM (active)
AC50 [30]: 6.45 µM (active)

SMILES: COc1ccc(NC(=O)N(C)C[C@H]2Oc3c(NC(=O)CCCCCC(=O)Nc4ccccc4N)cccc3C(=O)N([C@H](C)CO)C[C@H]2C)cc1
AC50 [21]: 0.304 µM (active)

IC50 [28]: 10.8 µM (active)
SMILES: Cc1ccc(S(=O)(=O)NCCC2=CCCCC2)cc1C(N)=O

SMILES: O=C(O)/C=C/C(=O)NCCc1ccc(Cl)cc1
IC50 [13]: > 29.9 µM (inactive)
IC50 [14]: > 29.9 µM (inactive)
EC50 [15]: > 29.9 µM (inactive)
EC50 [16]: 51.7 µM (inactive)

SMILES: CCCCCCCN(C(=O)CCl)c1cccc(C)c1
AC50 [31]: 9.19 µM (active)
EC50 [32]: 3.93 µM (inconclusive)
EC50 [33]: 3.17 µM (active)
EC50 [34]: > 75 µM (inconclusive)
EC50 [35]: 2.48 µM (inconclusive)
AC50 [36]: 5.91 µM (active)
EC50 [37]: 0.36 µM (inconclusive)

— ChEMBL document CHEMBL1201862, “PubChem BioAssay data set” (2004)
